Assay results as given in patent US20200009253A1, “Compositions and Methods for Treatment of Infections” (Thompson Cooper Laboratories, LLC, priority 2011, published 2020).

Legend:
[1] = Solubility of carbamide peroxide in alcohols; type: physicochemical; conditions: solid carbamide peroxide
Experimental: On a weight basis, 18.5% carbamide peroxide, 3.0% glycerol, 73.1% ethyl alcohol, 4.5% luviskol VA 64-polyvinylpyrrolidone vinyl alcohol, and 0.9% Klucel HF, were mixed in a vessel and allowed to thicken. The source of peroxide was solid carbamide peroxide, which is only soluble in isopropyl alcohol to about 10% and in ethanol to about 20%, therefore luviskol VA 64-polyvinylpyrrolidone vinyl alcohol is added to supersaturate the carbamide peroxide, and glycerol is added to retain the carbamide peroxide in solution following ethanol evaporation.

[2] = Whitening effect of the nail after brushing the composition onto the nail surface (shows peroxide penetration); type: in vivo, human
Excerpt: (§1) Lower levels of hydrogen peroxide in the present invention can be used to treat infected skin or mucous membranes such as canker sores. Depending on the concentration of peroxide, penetration through a nail will also elicit sensations in certain subjects ranging from tingling to burning, which may be mildly painful at higher concentrations. Embodiments of the invention comprising an optional local anesthetic may be appropriate when using such higher concentrations. Effectiveness may be measured by a reduction of, or complete eradication of, the nail fungus over the course of treatment, and further evidenced by healthy nail growth. On a weight basis, 9% hydrogen peroxide, 21% water, 69.5% isopropyl alcohol, and 0.5% Klucel HF (a thickening agent, a hydroxypropylcellulose polymer), were mixed in a vessel and allowed to thicken. (The source of the peroxide was a 30% peroxide solution.) The composition could easily be brushed onto a nail surface, which dried in approximately 1 minute, and the residual polymer could subsequently be removed by washing in water. […] On a weight basis, 6% hydrogen peroxide, 6% water, 87.5% isopropyl alcohol, and 0.5% Klucel HF, were mixed in a vessel and allowed to thicken. […] The resulting composition differed from that of Example 2a in that there was no isopropyl alcohol or any other highly volatile solvent, the quantity thereof being replaced with water. […]

[3] = Sensation (tingling, burning, pain) under the nail after application; type: in vivo, human; conditions: 3% in a solvent system containing a highly volatile solvent; after 15-30 minutes
Excerpt: as §1

solubility in ethanol [1]	solubility in isopropyl alcohol [1]	SMILES	visual effect on normal finger nail ([2]; 3% aqueous concentration, thin film via a brush)	visual effect on nail ([2]; same amount and 3% concentration in a solvent system containing a highly volatile solvent)	sensation after application [3]
about 20%	about 10%	NC(N)=O.OO [carbamide peroxide]	–	–	–
–	–	OO [hydrogen peroxide, Hydrogen peroxide]	no visual effect	signs of whiteness	a slight tingling sensation may sometimes be felt
